# Measurements as given in US20230181535A1, “UBIQUITIN-LIGASE INHIBITORS FOR THE TREATMENT OF CANCER” (FUNDACIÓN PROFESOR NOVOA SANTOS, priority 2020, published 2023).
# Key:
# HT29 cells [1] = assay: Migration assay, HT29; assay type: cell-based, human; conditions: HT-29; treated 48 h
# Description: For invasion assays, cells were treated with Hakin-1 or DMSO as vehicle for 48 h using 1% FBS during the last 24 hours. 3×10^5 MDCK, MDCK-Hakai or LoVo cells were seeded in a cell invasion chamber (Cell invasion assay kit, Chemicon International) containing medium with 2% FBS. After 72 hours for MDCK and MDCK-Hakai Invasive and 16 h for LoVo cells, invasive cells invaded that reach the lower chamber containing 30% FBS were fixed and stained with crystal violet (Sigma Aldrich, St Louis, Mo.) following the manufacturer's specifications. For migration assays, HT29 cells were cultured with Hakin-1 or DMSO as vehicle for 48 h, using medium without serum the last 24 h. In the cell migration chamber were seeded 3×10^5 HT29 cells (Cell migration kit, Millipore, Bedford, Mass.) containing medium without serum. After 16 h, migrated cells in the lower chamber containing serum with 30% FBS were stained with crystal violet and counted following the manufacturer's specifications. For both invasion and migration assays cells were counted in five fields photographed with an Olympus microscope using a 20× objective, experiments were performed in triplicates for each condition and the assays were repeated at least three times. Results are expressed as mean±SD.
# [2] = tested on: non-transformed epithelial MDCK cells; assay: BrdU proliferation assay, MDCK; assay type: cell-based; conditions: 48 h
# Description: (§1) For BrdU assays, 1×10^4 of indicated cells were plated per well into a 96-well plate. After 24 h, cells were treated with the indicated inhibitors for 48 h. Three independent experiments were plated with six replicates per each condition. Cells were treated with […] BrdU for 2 h. BrdU incorporation into newly synthesized DNA was measured using a cell proliferation colorimetric immunoassay kit according to the manufacturer's instructions (Roche, Switzerland). Results are expressed as mean±S.D. Results are represented as percentage of positive cells (mean±S.D) of three independent experiments.
# [3] = tested on: normal epithelial MDCK cell line; assay: MTT cell viability assay, MDCK; assay type: cell-based; conditions: compared with Hakai-MDCK
# Description: (§2) For cytotoxicity assays, 1×10^4 cells were seeded per well into a 96-well plate. After 24 h cells were treated with the indicated inhibitors for 72 h and a MTT colorimetric cell viability assay was performed following manufacturer's instructions (Sigma Aldrich, St Louis, Mo.). Absorbance was measured at 570 and 630 nm using a Multiskan Plus Reader (Nanoquant Infinite M200 Tecan Trading AG, Switzerland). Dose-response curves were designed with Graph Pad Prism Software and the half-maximal inhibitory concentration (IC50) values were calculated. Represented data are the mean±SEM of at least three independent experiments with six replicates per condition.
# HT29 cells [4] = assay: BrdU proliferation assay, HT29; assay type: cell-based, human; conditions: 48 h
# Description: as §1
# [5] = tested on: ubiquitination in 293T cells; assay: Ubiquitination assay in 293T cells transfected with v-Src and HA-ubiquitin (Hakai not overexpressed); assay type: cell-based; conditions: vs DMSO
# Description: Six hours after transfection cells were treated with indicated concentrations of Hakin-1, Hakin-5 or the rest of the compounds tested for 36 h. Whole cell extracts were obtained in lysis buffer (20 mM Tris-HCl pH 7.5, 150 mM NaCl and 1% Triton X-100) containing 10 μg/ml leupeptin, 10 μg/ml aprotinin and 1 mM phenylmethanesulphonyl fluoride (PMSF), supplemented with 10 mM N-ethylmaleimide. Cells were harvested and subjected to western blotting using anti-HA antibody to detect ubiquitination.
# [6] = tested on: LoVo colon tumour cell line; assay: MTT cell viability assay, LoVo; assay type: cell-based; conditions: increasing range of concentrations
# Description: as §2
# LoVo cells = assay: Western blotting of EMT markers, LoVo; assay type: cell-based; conditions: 48 h
# Description: For western blot analysis, cells were treated with the indicated inhibitors for 48 h and the whole cell extracts were obtained as described previously. Twenty micrograms of lysates were resolved on a 10% polyacrilamide SDS-PAGE followed by western blot analysis performed as previously described. For immunofluorescence assays cells were grown for 24 h on glass coverslips and treated with the indicated inhibitors for 48 h. Cells were fixed with 4% PFA for 15 min, permeabilized with 0.5% […] and incubated with E-cadherin antibody for 2 h. Coverslips were incubated with fluorescein-tagged secondary antibody (Dakopatts, Sweden) for […]. Finally coverslips were mounted with ProLong Gold antifade reagent (LifeTech, UK) and images were taken in epifluorescence microscope (Olympus) using 40× objective. […] One set of SIM Synthetic Focus images were taken in the DAPI channel for Hoechst 33342 staining, and another set of images were taken in the FITC channel for anti-E-cadherin-AlexaFluor488 labeling and analysed by Structured Illumination Microscopy (SIM™) platform to image the cells and Vala's CyteSeer® Cell-Cell Junction Algorithm to quantify the degree of expression and intracellular location of E-cadherin Vala's CyteSeer® Software can also measure relative DNA content by analyzing Total Integrated Intensity (TII) of the Nuclear Image (Ni) on the Nuclear Mask (Nm). […]
# tumour culture cells = assay: In vitro antitumor effect (summary of cell assays); assay type: cell-based
# renal cancer ACHN cells = assay: BrdU proliferation assay, ACHN; assay type: cell-based, human; conditions: 48 h
# Description: as §1
# [7] = Hepatocyte stability, human; assay type: in vitro ADME; conditions: cryopreserved human hepatocytes in suspension, read-out: estimated half-life
# Description: Test compound (final substrate concentration 3 μM; final DMSO concentration 0.25%) were pre-incubated at 37° C., prior to the addition of a suspension of cryopreserved hepatocytes (final cell density 0.5×10^6 viable cells/mL in Williams E media supplemented with 2 mM L glutamine and 25 mM HEPES) to initiate the reaction. The reactions were stopped with acetonitrile containing internal standard at the appropriate time points ([…]). The termination plates were centrifuged at 2500 rpm at 4° C. for 30 minute to precipitate the protein. Following the hepatocyte stability assays, the samples were utilized for metabolite profiling. Hepatocyte stability in mouse and human was performed by using the incubation of tested compound (3 μM) with cryopreserved hepatocytes in suspension. Samples were removed at 6 time points over the course of a 60 min experiment and remaining test compound at each time point was analysed by using LC-MS/MS. Then, data was analysed and an intrinsic clearance (CLint) with standard error and half-life (t½) reported.
compound,measurement,setting,value
"O=C(O)c1ccc(-n2nnnc2SCC(=O)c2ccc([N+](=O)[O-])cc2)cc1 [Hakin-1, 4-(5-[2-(4-nitrophenyl)-2-oxoethyl]thiol-1H-tetrazol-1-yl)benzoic acid]",cell migration,HT29 cells [1],important reduction of cell migration
same,cell proliferation (BrdU),[2],no effect was detected
same,"sensitivity to treatment (cell viability, MTT)",[3],more resistant
same,cell proliferation (BrdU),HT29 cells [4],reduced cell proliferation
same,ubiquitination when Hakai was not overexpressed,[5],did not affect ubiquitination
same,"cytotoxicity (cell viability, MTT)",[6],important inhibitory response
same,EMT markers (western blotting),LoVo cells,confirmed these results
same,concentration at which the in vitro antitumor effect was observed,tumour culture cells,100 to 200 µM
same,cell proliferation (BrdU),renal cancer ACHN cells,inhibited cell proliferation
same,half-life at 3 μM,[7],2.33 h
